According to ChEMBL document CHEMBL1141938 (Bioorg Med Chem Lett, 2005):

Tests used:
[1] = biological target: Human immunodeficiency virus type 1 protease (Human immunodeficiency virus 1, UniProt Q72874)
Description: Inhibitory activity against HIV protease

[2] = system: Human immunodeficiency virus; test: Antiviral activity in MT4 human T lymphoid cells infected with wild type NL4-3 HIV; assay type: functional; details: Human immunodeficiency virus 1, NL4-3, MT4; read-out: CIC95
[3] = system: Human immunodeficiency virus; test: Antiviral activity against mutant HIV isolate K-60C; assay type: functional; details: Human immunodeficiency virus 1, K-60; read-out: CIC95
[4] = system: Human immunodeficiency virus; test: Antiviral activity against mutant HIV isolate V-18C; assay type: functional; details: Human immunodeficiency virus 1, V-18C; read-out: CIC95
[5] = system: Human immunodeficiency virus; test: Antiviral activity against 4X HIV strain; assay type: functional; details: Human immunodeficiency virus 1, 4X; read-out: CIC95
[6] = system: Human immunodeficiency virus; test: Antiviral activity against mutant HIV isolate Q-60C; assay type: functional; details: Human immunodeficiency virus 1, Q-60C; read-out: CIC95
[7] = Plasma clearance in rat at 2 mg/kg, po; assay type: ADME, organism-based; design: dose 2 mg/kg, route oral
[8] = system: Rattus norvegicus; test: AUC in rat at 2 mg/kg, po; assay type: ADME, organism-based, Plasma; design: dose 2 mg/kg, route oral; details: in vivo
[9] = Half life in rat at 2 mg/kg, po; assay type: ADME, organism-based; design: dose 2 mg/kg, route oral; details: in vivo
[10] = Oral bioavailability in rat at 2 mg/kg, po; assay type: ADME, organism-based; details: in vivo
[11] = biological target: Cytochrome P450 2C9 (Homo sapiens, UniProt P11712); test: Inhibitory activity against CYP2C9; assay type: ADME
[12] = biological target: Cytochrome P450 3A4 (Homo sapiens, UniProt P08684); test: Inhibitory activity against CYP3A4; assay type: ADME
[13] = Cmax in rat at 2 mg/kg, po; assay type: ADME, organism-based; design: dose 2 mg/kg, route oral; details: in vivo
[14] = biological target: Cytochrome P450 2D6 (Homo sapiens, UniProt P10635); test: Inhibitory activity against CYP2D6; assay type: ADME
[15] = Oral bioavailability in dog at 10 mg/kg, po; assay type: ADME, organism-based, Canis lupus familiaris; details: in vivo
[16] = Half life in dog at 10 mg/kg, po; assay type: ADME, organism-based, Canis lupus familiaris; design: dose 10 mg/kg, route oral; details: in vivo
[17] = system: Canis familiaris; test: AUC in dog at 10 mg/kg, po; assay type: ADME, organism-based, Canis lupus familiaris, Plasma; design: dose 10 mg/kg, route oral; details: in vivo
[18] = Plasma clearance in dog at 10 mg/kg, po; assay type: ADME, organism-based, Canis lupus familiaris; design: dose 10 mg/kg, route oral
[19] = Half life in rat at 10 mg/kg, po; assay type: ADME, organism-based; design: dose 10 mg/kg, route oral; details: in vivo
[20] = Cmax in rat at 10 mg/kg, po; assay type: ADME, organism-based; design: dose 10 mg/kg, route oral; details: in vivo
[21] = Cmax in dog at 10 mg/kg, po; assay type: ADME, organism-based, Canis lupus familiaris; design: dose 10 mg/kg, route oral; details: in vivo
[22] = Oral bioavailability in rat at 10 mg/kg, po; assay type: ADME, organism-based; details: in vivo
[23] = system: Rattus norvegicus; test: AUC in rat at 10 mg/kg, po; assay type: ADME, organism-based, Plasma; design: dose 10 mg/kg, route oral; details: in vivo
[24] = Plasma clearance in rat at 10 mg/kg, po; assay type: ADME, organism-based; design: dose 10 mg/kg, route oral

Cytochrome P450 3A4, sequence (P08684 whole entry): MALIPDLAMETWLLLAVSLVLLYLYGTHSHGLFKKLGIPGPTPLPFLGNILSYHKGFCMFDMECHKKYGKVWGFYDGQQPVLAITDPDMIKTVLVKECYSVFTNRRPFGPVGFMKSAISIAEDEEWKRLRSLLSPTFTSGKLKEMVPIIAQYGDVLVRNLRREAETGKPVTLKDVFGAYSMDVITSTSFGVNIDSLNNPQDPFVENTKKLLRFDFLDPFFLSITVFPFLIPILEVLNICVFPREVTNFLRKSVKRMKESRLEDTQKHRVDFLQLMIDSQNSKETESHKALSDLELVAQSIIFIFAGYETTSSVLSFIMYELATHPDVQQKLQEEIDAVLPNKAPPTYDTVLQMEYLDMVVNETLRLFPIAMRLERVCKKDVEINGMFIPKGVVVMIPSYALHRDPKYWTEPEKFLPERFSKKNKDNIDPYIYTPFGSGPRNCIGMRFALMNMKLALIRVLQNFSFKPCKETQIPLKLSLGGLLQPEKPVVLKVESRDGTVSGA
Cytochrome P450 2D6, sequence (P10635 whole entry): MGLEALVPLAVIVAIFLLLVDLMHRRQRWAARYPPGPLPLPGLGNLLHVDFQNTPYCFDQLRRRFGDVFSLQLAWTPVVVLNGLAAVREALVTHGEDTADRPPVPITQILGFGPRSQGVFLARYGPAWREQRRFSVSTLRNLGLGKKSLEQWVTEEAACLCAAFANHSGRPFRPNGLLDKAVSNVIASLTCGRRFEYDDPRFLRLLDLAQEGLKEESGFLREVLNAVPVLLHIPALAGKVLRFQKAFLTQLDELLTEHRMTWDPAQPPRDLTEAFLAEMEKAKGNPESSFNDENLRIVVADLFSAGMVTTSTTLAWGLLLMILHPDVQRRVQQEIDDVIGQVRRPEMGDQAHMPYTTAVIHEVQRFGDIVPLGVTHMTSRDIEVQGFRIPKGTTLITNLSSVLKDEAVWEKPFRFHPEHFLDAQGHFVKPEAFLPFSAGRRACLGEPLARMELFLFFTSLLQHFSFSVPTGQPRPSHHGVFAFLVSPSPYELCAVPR
Cytochrome P450 2C9, sequence (P11712 whole entry): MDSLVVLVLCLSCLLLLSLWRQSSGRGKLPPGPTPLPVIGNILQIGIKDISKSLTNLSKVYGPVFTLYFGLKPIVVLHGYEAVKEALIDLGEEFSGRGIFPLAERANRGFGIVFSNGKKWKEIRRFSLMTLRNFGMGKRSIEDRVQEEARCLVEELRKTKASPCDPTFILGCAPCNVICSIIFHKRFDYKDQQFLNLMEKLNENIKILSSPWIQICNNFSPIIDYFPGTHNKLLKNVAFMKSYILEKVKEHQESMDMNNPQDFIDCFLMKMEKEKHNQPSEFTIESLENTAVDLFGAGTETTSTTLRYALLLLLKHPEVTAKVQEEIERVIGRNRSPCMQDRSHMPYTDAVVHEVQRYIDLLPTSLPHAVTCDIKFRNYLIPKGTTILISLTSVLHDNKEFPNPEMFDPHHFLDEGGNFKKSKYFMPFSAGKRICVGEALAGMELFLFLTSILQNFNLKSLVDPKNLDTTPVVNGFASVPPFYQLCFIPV

O=C(N[C@H]1c2ccccc2OC[C@H]1O)[C@H](Cc1cc2cnccc2s1)C[C@H](O)CN1CCN(Cc2csc(-c3ccc(C(F)(F)F)cc3)n2)C[C@H]1C(=O)NCC(F)(F)F
IC50 [1]: 0.07 nM
IC95 [2]: 26 nM
IC95 [3]: 31.3 nM
IC95 [4]: 375 nM
IC95 [5]: 125 nM
IC95 [6]: 93.8 nM

Cc1ccncc1-c1ccc(C[C@H](C[C@H](O)CN2CCN(Cc3csc(-c4ccc(F)cc4)n3)C[C@H]2C(=O)NCC(F)(F)F)C(=O)N[C@H]2c3ccccc3OC[C@H]2O)o1
IC50 [1]: 0.11 nM
IC95 [2]: < 7.8 nM
IC95 [3]: 125 nM
IC95 [4]: 62.5 nM
IC95 [5]: 15.6 nM
IC95 [6]: 125 nM

O=C(N[C@H]1c2ccccc2OC[C@H]1O)[C@H](Cc1cc2cnccc2s1)C[C@H](O)CN1CCN(Cc2ccc(-c3ccc(Cl)cc3)o2)C[C@H]1C(=O)NCC(F)(F)F
IC50 [1]: 0.03 nM
IC95 [2]: 15.6 nM
IC95 [3]: < 7.8 nM
IC95 [4]: 125 nM
IC95 [5]: 15.6 nM
IC95 [6]: 31.3 nM

Cc1ccncc1-c1ccc(C[C@H](C[C@H](O)CN2CCN(Cc3ccc(-c4ccc(Cl)cc4)o3)C[C@H]2C(=O)NCC(F)(F)F)C(=O)N[C@H]2c3ccccc3OC[C@H]2O)o1
IC50 [1]: 0.08 nM
IC95 [2]: 15.6 nM
IC95 [3]: < 7.8 nM
IC95 [4]: 125 nM
IC95 [5]: 31.3 nM
IC95 [6]: 62.5 nM

O=C(N[C@H]1c2ccccc2OC[C@H]1O)[C@H](Cc1cc2cnccc2s1)C[C@H](O)CN1CCN(Cc2ccc(-c3ccc(Cl)cc3)s2)C[C@H]1C(=O)NCC(F)(F)F
IC50 [1]: 0.05 nM
IC95 [2]: 15.6 nM
IC95 [3]: 31.3 nM
IC95 [4]: 125 nM
IC95 [5]: 15.6 nM
IC95 [6]: 31.3 nM

Cc1ccncc1-c1ccc(C[C@H](C[C@H](O)CN2CCN(Cc3ccc(-c4ccc(Cl)cc4)s3)C[C@H]2C(=O)NCC(F)(F)F)C(=O)N[C@H]2c3ccccc3OC[C@H]2O)o1
IC50 [1]: 0.04 nM
IC95 [2]: < 7.8 nM
IC95 [3]: 125 nM
IC95 [4]: 62.5 nM
IC95 [5]: 15.6 nM
IC95 [6]: 62.5 nM

O=C(N[C@H]1c2ccccc2OC[C@H]1O)[C@H](Cc1cc2ccncc2o1)C[C@H](O)CN1CCN(Cc2ccc(-c3ccc(Cl)cc3)o2)C[C@H]1C(=O)NCC(F)(F)F
IC50 [1]: 0.05 nM
IC95 [2]: < 7.8 nM
IC95 [3]: < 7.8 nM
IC95 [4]: 62.5 nM
IC95 [5]: 31.3 nM
IC95 [6]: 15.6 nM

Cc1ccncc1-c1ccc(C[C@H](C[C@H](O)CN2CCN(C(C)(C)c3ncc(-c4ccc(Cl)cc4)s3)C[C@H]2C(=O)NCC(F)(F)F)C(=O)N[C@H]2c3ccccc3OC[C@H]2O)o1
IC50 [1]: 0.03 nM
IC95 [2]: 15.6 nM
IC95 [3]: 15.6 nM
IC95 [4]: 250 nM
IC95 [5]: 31.3 nM
IC95 [6]: 31.3 nM

CC(C)(c1ncc(-c2ccc(Cl)cc2)o1)N1CCN(C[C@@H](O)C[C@@H](Cc2cc3cnccc3s2)C(=O)N[C@H]2c3ccccc3OC[C@H]2O)[C@H](C(=O)NCC(F)(F)F)C1
IC50 [1]: 0.02 nM
IC95 [2]: < 7.8 nM
CL/F [7]: 111 mL/min/kg
AUC [8]: 0.36 uMh
half-life [9]: 48 min
bioavailability [10]: 7.3%
IC50 [11]: < 1000 nM
IC50 [12]: < 1000 nM
IC95 [3]: < 7.8 nM
Cmax [13]: 52 nM
IC95 [4]: < 7.8 nM
IC95 [5]: < 7.8 nM
IC95 [6]: < 7.8 nM
IC50 [14]: < 1000 nM

CC(C)(c1ncc(-c2ccc(Cl)cc2)o1)N1CCN(C[C@@H](O)C[C@@H](Cc2cc3ccncc3s2)C(=O)N[C@H]2c3ccccc3OC[C@H]2O)[C@H](C(=O)NCC(F)(F)F)C1
IC50 [1]: < 0.02 nM
IC95 [2]: < 7.8 nM
IC95 [3]: < 7.8 nM
IC95 [4]: < 7.8 nM
IC95 [5]: < 7.8 nM
IC95 [6]: < 7.8 nM

CC(C)(c1ncc(-c2ccc(Cl)cc2)o1)N1CCN(C[C@@H](O)C[C@@H](Cc2cc3ccncc3o2)C(=O)N[C@H]2c3ccccc3OC[C@H]2O)[C@H](C(=O)NCC(F)(F)F)C1
IC50 [1]: 0.02 nM
bioavailability [15]: 42%
IC95 [2]: < 7.8 nM
half-life [16]: 60 min
AUC [17]: 0.39 uMh
CL/F [18]: 23 mL/min/kg
IC50 [11]: < 1000 nM
half-life [19]: 48 min
IC50 [12]: < 1000 nM
Cmax [20]: 180 nM
Cmax [21]: 2100 nM
bioavailability [22]: 14%
IC95 [3]: < 7.8 nM
IC95 [4]: 31 nM
IC95 [5]: < 7.8 nM
AUC [23]: 0.29 uMh
IC95 [6]: < 7.8 nM
IC50 [14]: < 1000 nM
CL/F [24]: 98 mL/min/kg

CC(C)(c1ncc(-c2ccc(Cl)cc2)s1)N1CCN(C[C@@H](O)C[C@@H](Cc2cc3cnccc3s2)C(=O)N[C@H]2c3ccccc3OC[C@H]2O)[C@H](C(=O)NCC(F)(F)F)C1
IC50 [1]: 0.04 nM
IC95 [2]: < 7.8 nM
IC95 [3]: < 7.8 nM
IC95 [4]: 31.3 nM
IC95 [5]: < 7.8 nM
IC95 [6]: < 7.8 nM

CC(C)(c1ncc(-c2ccc(Cl)cc2)o1)N1CCN(C[C@@H](O)C[C@@H](Cc2cc3c(Cl)cncc3s2)C(=O)N[C@H]2c3ccccc3OC[C@H]2O)[C@H](C(=O)NCC(F)(F)F)C1
IC50 [1]: < 0.02 nM
IC95 [2]: < 7.8 nM
IC95 [3]: < 7.8 nM
IC95 [4]: 15.6 nM
IC95 [5]: < 7.8 nM
IC95 [6]: < 7.8 nM

Cc1ccncc1-c1ccc(C[C@H](C[C@H](O)CN2CCN(Cc3ncc(-c4ccc(Cl)cc4)o3)C[C@H]2C(=O)NCC(F)(F)F)C(=O)N[C@H]2c3ccccc3OC[C@H]2O)o1
IC50 [1]: 0.03 nM
IC95 [2]: < 7.8 nM
IC95 [3]: 15.6 nM
IC95 [4]: 125 nM
IC95 [5]: 62.5 nM
IC95 [6]: 62.5 nM

CC(C)(C)NC(=O)[C@@H]1CN(Cc2cccnc2)CCN1C[C@@H](O)C[C@@H](Cc1ccccc1)C(=O)N[C@H]1c2ccccc2C[C@H]1O
IC95 [2]: 50 nM
IC95 [3]: > 1000 nM
IC95 [4]: > 1000 nM
IC95 [5]: 400 nM
IC95 [6]: > 1000 nM
